Test results from patent US20240158446A1, “CYCLIC COMPOUND HAVING SELECTIVE INHIBITORY ACTION ON KRAS OVER HRAS AND NRAS” (CHUGAI SEIYAKU KABUSHIKI KAISHA, priority 2021, published 2024).
Like-named read-outs stand apart in the source and are kept apart here. Where a SMILES comes first, the peptide text is derived from it. Bridges are numbered along the chain shown (N, C = ends). [ ]: non-standard residue; d: D form. The star is where a group is joined. hPhe(3-Cl-4-CF3) = N[C@@H](CCc1ccc(C(F)(F)F)c(Cl)c1)C(=O)O; NPrPhe(4-CF3) = CCCN[C@@H](Cc1ccc(C(F)(F)F)cc1)C(=O)O; NMeGly(cPent) = CN[C@H](C(=O)O)C1CCCC1; Hyp = O=C(O)[C@@H]1C[C@@H](O)CN1; NMeD = CN[C@@H](CC(=O)O)C(=O)O; NMeL = CN[C@@H](CC(C)C)C(=O)O; Morpholide = C1CN(*)CCO1; Ac5c = NC1(C(=O)O)CCCC1; Aze = O=C(O)[C@@H]1CCN1; Ac4c = NC1(C(=O)O)CCC1; NPrGly = CCCNCC(=O)O; Sar = CNCC(=O)O

Tests used:
[1] = biological target: GDP-bound NRAS wild-type protein (Homo sapiens, UniProt P01111); experiment: Binding to NRAS by surface plasmon resonance (SPR), Single Cycle Kinetics
Sequence of GDP-bound NRAS wild-type protein (P01111 whole entry): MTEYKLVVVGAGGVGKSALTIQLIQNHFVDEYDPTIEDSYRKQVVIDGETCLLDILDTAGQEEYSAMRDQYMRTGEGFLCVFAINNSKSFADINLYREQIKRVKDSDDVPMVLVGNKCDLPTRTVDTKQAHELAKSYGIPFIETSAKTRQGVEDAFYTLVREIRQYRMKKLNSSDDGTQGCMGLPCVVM

[2] = biological target: GDP-bound KRAS wild-type protein (Homo sapiens, UniProt P01116); experiment: Binding to KRAS by surface plasmon resonance (SPR), Single Cycle Kinetics; details: GDP-bound KRAS wild-type protein, read-out: KRAS KD
Sequence of GDP-bound KRAS wild-type protein (P01116 whole entry): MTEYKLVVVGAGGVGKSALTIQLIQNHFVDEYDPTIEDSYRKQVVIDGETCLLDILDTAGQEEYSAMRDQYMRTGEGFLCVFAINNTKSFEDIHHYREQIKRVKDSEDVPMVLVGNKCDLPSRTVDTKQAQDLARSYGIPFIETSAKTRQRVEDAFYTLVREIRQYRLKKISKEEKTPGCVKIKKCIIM

[3] = biological target: GDP-bound HRAS wild-type protein (Homo sapiens, UniProt P01112); experiment: Binding to HRAS by surface plasmon resonance (SPR), Single Cycle Kinetics
Sequence of GDP-bound HRAS wild-type protein (P01112 whole entry): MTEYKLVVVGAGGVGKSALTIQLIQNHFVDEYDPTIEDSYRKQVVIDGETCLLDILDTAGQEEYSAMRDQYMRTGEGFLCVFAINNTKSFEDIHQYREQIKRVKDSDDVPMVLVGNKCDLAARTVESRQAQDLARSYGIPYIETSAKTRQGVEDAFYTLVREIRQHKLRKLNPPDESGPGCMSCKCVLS

[4] = SPR, GDP-bound NRAS wild-type protein vs GDP-bound KRAS wild-type protein
[5] = SPR Single Cycle Kinetics, 1:1 binding model
[6] = SPR, GDP-bound HRAS wild-type protein vs GDP-bound KRAS wild-type protein

| Structure (SMILES) | Kd [2, 5] [nM] | Kd ([2]; SPR, Single Cycle Kinetics) [nM] | NRAS/KRAS (ratio of KD value for NRAS to KD value for KRAS) [1, 4] | HRAS/KRAS (ratio of KD value for HRAS to KD value for KRAS) [3, 6] | other results |
| --- | --- | --- | --- | --- | --- |
| CCO[C@@H]1C[C@H]2C(=O)NC3(CC(C)(C)C3)C(=O)N(C)[C@@H](C(CC)CC)C(=O)N(C)[C@H](C(=O)N(C)C)CC(=O)N(C)[C@H]3CCCCCCc4ccc(cc4)C[C@@H](C(=O)N(C)CC(=O)N[C@@H](CCc4ccc(C(F)(F)F)c(OC)c4)C(=O)N2C1)N1CC/C=C\C[C@@H](C1=O)N(C)C(=O)CN(C)C(=O)[C@H]([C@@H](C)CC)NC3=O [PP3032] |  | 0.1 | AA (a compound having 20 or more is denoted as AA) | A (a compound having 10 or more and less than 20 is denoted as A) |  |
| C#CCN1CC(=O)N(C)[C@H]2C/C=C\CCN(C2=O)[C@@H](Cc2ccc(C(F)(F)F)cc2)C(=O)N(C)CC(=O)N[C@@H](CCc2cc(F)c(C(F)(F)F)c(F)c2)C(=O)N2C[C@H](OCC)C[C@H]2C(=O)NC2(CC(C)(C)C2)C(=O)N(C)[C@@H](C2CCCC2)C(=O)N(C)[C@H](C(=O)N(C)C)CC(=O)N(C)[C@@H](CC)C(=O)N[C@@H]([C@@H](C)CC)C1=O [PP2087] |  | 0.15 | A (a compound having 10 or more and less than 20 is denoted as A) | A (a compound having 10 or more and less than 20 is denoted as A) |  |
| CCO[C@@H]1C[C@H]2C(=O)NC3(CCCC3)C(=O)N(C)[C@@H](C3CCCC3)C(=O)N(C)[C@H](C(=O)N(C)C)CC(=O)N(C)[C@@H](CC(C)C)C(=O)N[C@@H]([C@@H](C)CC)C(=O)N(C)CC(=O)N(C)[C@H]3CC(C)=CCN(C3=O)[C@@H](Cc3ccc(C(F)(F)F)cc3)C(=O)N(C)CC(=O)N[C@@H](CCc3cc(F)c(C(F)(F)F)c(F)c3)C(=O)N2C1 [PP1031] |  | 0.67 | C (A compound having a KD ratio of 0.1 or more and less than 3 is denoted as C) | C (A compound having a KD ratio of 0.1 or more and less than 3 is denoted as C) |  |
| CCO[C@@H]1C[C@H]2C(=O)NC3(CCC3)C(=O)N(C)[C@@H](C(CC)CC)C(=O)N(C)[C@H](C(=O)N3CCOCC3)CC(=O)N(C)[C@@H](CC3CC3)C(=O)N[C@@H]([C@@H](C)CC)C(=O)N(C)CC(=O)N(C)[C@H]3C/C=C\CCN(C3=O)[C@@H](Cc3ccc(F)cc3C)C(=O)N(C)CC(=O)N[C@@H](CCc3cc(F)c(C(F)(F)F)c(F)c3)C(=O)N2C1 [PP1526] |  |  |  |  | NRAS/KRAS (ratio of KD value for NRAS to KD value for KRAS) ([1]; SPR, GDP-bound NRAS wild-type protein vs GDP-bound KRAS wild-type protein, KD ratio class): A (a compound having 10 or more and less than 20 is denoted as A); Kd ([2]; SPR, Single Cycle Kinetics, 1:1 binding model): 1.3 nM; HRAS/KRAS (ratio of KD value for HRAS to KD value for KRAS) ([3]; SPR, GDP-bound HRAS wild-type protein vs GDP-bound KRAS wild-type protein, KD ratio class): A (a compound having 10 or more and less than 20 is denoted as A) |
| CCCOC[C@H]1C(=O)N[C@@H]([C@@H](C)CC)C(=O)N(C)CC(=O)N(C)[C@H]2C/C=C\CCN(C2=O)[C@@H](Cc2ccc(C(F)(F)F)cc2)C(=O)N(C)CC(=O)N[C@@H](CCc2ccc(C(F)(F)F)c(Cl)c2)C(=O)N2C[C@H](OCC)C[C@H]2C(=O)NC2(CCC2)C(=O)N(C)[C@@H](C2CCCC2)C(=O)N(C)[C@H](C(=O)N(C)CCC)CC(=O)N1C [PP2831] | 0.11 |  |  |  | NRAS/KRAS (ratio of KD value with respect to GDP-bound NRAS wild-type protein to KD value with respect to KRAS) ([1]; SPR KD ratio NRAS/KRAS, class symbols): A (a compound having 10 or more and less than 20 is denoted as A); HRAS/KRAS (ratio of KD value with respect to GDP-bound HRAS wild-type protein to KD value with respect to KRAS) ([3]; SPR KD ratio HRAS/KRAS, class symbols): A (a compound having 10 or more and less than 20 is denoted as A) |

More lines, main results first:

| Kd [2, 5] [nM] | Kd ([2]; SPR, Single Cycle Kinetics) [nM] | Structure (SMILES) | NRAS/KRAS (ratio of KD value for NRAS to KD value for KRAS) [1, 4] | HRAS/KRAS (ratio of KD value for HRAS to KD value for KRAS) [3, 6] | other results |
| --- | --- | --- | --- | --- | --- |
| 3.8 |  | CCCN1CC(=O)NC2(CCCC2)C(=O)N(C)[C@@H](C2CCCC2)C(=O)N(C)[C@H](C(=O)N2CCOCC2)CC(=O)N(C)[C@@H](CC(C)C)C(=O)N[C@@H]([C@@H](C)CC)C(=O)N2CC[C@H]2C(=O)N(C)CC(=O)N(CCC)[C@@H](Cc2ccc(C(F)(F)F)cc2)C(=O)N(C)CC(=O)N[C@@H](CCc2ccc(C(F)(F)F)c(Cl)c2)C1=O [PP0315] ([NMeL]I[Aze][Sar][NPrPhe(4-CF3)][Sar][hPhe(3-Cl-4-CF3)][NPrGly][Ac5c][NMeGly(cPent)][NMeD]-Morpholide; lactam N-11) | B (a compound having 3 or more and less than 10 is denoted as B) | B (a compound having 3 or more and less than 10 is denoted as B) |  |
| 0.31 |  | CCCN1C(=O)CN(C)C(=O)[C@@H]2CCN2C(=O)[C@H]([C@@H](C)CC)NC(=O)[C@H](CC(C)C)N(C)C(=O)C[C@@H](C(=O)N2CCOCC2)N(C)C(=O)[C@H](C2CCCC2)N(C)C(=O)C2(CCC2)NC(=O)[C@@H]2C[C@@H](OCC)CN2C(=O)[C@H](CCc2ccc(C(F)(F)F)c(Cl)c2)NC(=O)CN(C)C(=O)[C@@H]1Cc1ccc(C(F)(F)F)cc1 [PP0405] ([NMeL]I[Aze][Sar][NPrPhe(4-CF3)][Sar][hPhe(3-Cl-4-CF3)][Hyp](Et)[Ac4c][NMeGly(cPent)][NMeD]-Morpholide; lactam N-11) | B (a compound having 3 or more and less than 10 is denoted as B) | C (A compound having a KD ratio of 0.1 or more and less than 3 is denoted as C) |  |
|  | 3.4 | CCO[C@@H]1C[C@H]2C(=O)NC3(CCC3)C(=O)N(C)[C@@H](C3CCCC3)C(=O)N(CC)[C@H](C(=O)N3CCOCC3)CC(=O)N(C)[C@@H](CCOC)C(=O)N[C@@H]([C@@H](C)CC)C(=O)N(C)CC(=O)N(C)[C@H]3CCCCCN(C3=O)[C@@H](Cc3ccc(C(F)(F)F)cc3)C(=O)N(C)CC(=O)N[C@@H](CCc3cc(F)c(C(F)(F)F)c(F)c3)C(=O)N2C1 [PP0947] | A (a compound having 10 or more and less than 20 is denoted as A) | A (a compound having 10 or more and less than 20 is denoted as A) |  |
| 0.033 |  | CCO[C@@H]1C[C@H]2C(=O)NC3(CCC3)C(=O)N(C)[C@@H](C3CCCC3)C(=O)N(C)[C@H](C(=O)N3CCOCC3)CC(=O)N(C)[C@@H](CC3CCC3)C(=O)N[C@@H]([C@@H](C)CC)C(=O)N(C)CC(=O)N(C)[C@H]3CCCCN(C3=O)[C@@H](Cc3ccc(C(F)(F)F)cc3)C(=O)N(C)CC(=O)N[C@@H](CCc3cc(F)c(C(F)(F)F)c(F)c3)C(=O)N2C1 [PP0713] |  |  | NRAS/KRAS (ratio of KD value with respect to NRAS to KD value with respect to KRAS) [1, 4]: C (A compound having a KD ratio of 0.1 or more and less than 3 is denoted as C); HRAS/KRAS (ratio of KD value with respect to HRAS to KD value with respect to KRAS) [3, 6]: B (a compound having 3 or more and less than 10 is denoted as B) |
|  | 0.11 | CC[C@H](C)[C@@H]1NC(=O)[C@H](COC)N(C)C(=O)C[C@@H](C(=O)N(C)C)N(C)C(=O)[C@H](C2CCCC2)N(C)C(=O)C2(CC(C)(C)C2)NC(=O)[C@@H]2C[C@@H](C)CN2C(=O)[C@H](CCc2ccc(C(F)(F)F)c(OC)c2)NC(=O)CN(C)C(=O)[C@H](Cc2ccc(C)cc2)N2CC/C=C\C[C@@H](C2=O)N(C)C(=O)CN(C)C1=O [PP2387] | A (a compound having 10 or more and less than 20 is denoted as A) | A (a compound having 10 or more and less than 20 is denoted as A) |  |
